Reference: PMC12298351, “Novel 3,19-(N-Phenyl-3-(4-fluorophenyl)-pyrazole) Acetal of Andrographolide Promotes Cell Cycle Arrest and Apoptosis in MDA-MB-231 Breast Cancer Cells” (Pharmaceuticals, 2025)

Assays:
OVCAR-5 = settings: OVCAR-5, Ovarian
SNB-75 = settings: SNB-75, CNS
SK-OV-3 = settings: SK-OV-3, Ovarian
SW-620 = settings: SW-620, Colon
CAKI-1 = settings: CAKI-1, Renal
786-0 = settings: 786-0, Renal
MCF7 = settings: MCF7, Breast
SK-MEL-5 = settings: SK-MEL-5, Melanoma
SF-268 = settings: SF-268, CNS
HT29 = settings: HT29, Colon
DU-145 = settings: DU-145, Prostate
NCI/ADR-RES = settings: Ovarian
KM12 = settings: KM12, Colon
COLO 205 = settings: COLO 205, Colon
SK-MEL-28 = settings: SK-MEL-28, Melanoma
SNB-19 = assay type: cell-based; settings: SNB-19, CNS
IGROV1 = settings: IGROV1, Ovarian
MALME-3M = settings: Melanoma
K-562 = settings: K-562, Leukemia
UO-31 = settings: UO-31, Renal
BT-549 = assay type: cell-based; settings: BT-549, Breast
MDA-MB-468 = settings: MDA-MB-468, Breast
[1] = read-out: 50% lethal concentration (LC50), Renal
[2] = read-out: 50% lethal concentration (LC50)

With `C=C1CCC2C3(C)COC(c4cn(-c5ccccc5)nc4-c4ccc(Br)cc4)OC3CCC2(C)C1CC=C1C(=O)OCC1O` (stereo not drawn) [1h] the GI50 (ACHN; Renal) was 2.07 µM, the Total growth inhibition (TGI) (ACHN; Renal) was 4.78 µM and the CC50 (ACHN; [1]) was > 100 µM. The Total growth inhibition (TGI) (HOP-92; HOP-92, Non-Small Cell Lung) was 2.92 µM, the GI50 (HOP-92; HOP-92, Non-Small-Cell Lung) was 1.38 µM and the CC50 (HOP-92; read-out: 50% lethal concentration (LC50), HOP-92, Non-Small Cell Lung) was 6.2 µM. It also gave a Total growth inhibition (TGI) (NCI-H226; NCI-H226, Non-Small Cell Lung) of 2.8 µM, a GI50 (NCI-H226; NCI-H226, Non-Small-Cell Lung) of 1.36 µM and a CC50 (NCI-H226; read-out: 50% lethal concentration (LC50), NCI-H226, Non-Small Cell Lung) of 5.77 µM. For the same compound, the GI50 (OVCAR-5) was 1.93 µM, the Total growth inhibition (TGI) (OVCAR-5) was 5.08 µM and the CC50 (OVCAR-5; [2]) was > 100 µM. It also gave a GI50 (SNB-75) of 1.51 µM, a Total growth inhibition (TGI) (SNB-75) of 2.91 µM and a CC50 (SNB-75; [2]) of 5.75 µM. The GI50 (SK-OV-3) was 2.03 µM, the Total growth inhibition (TGI) (SK-OV-3) was 8.27 µM and the CC50 (SK-OV-3; [2]) was > 100 µM. The Total growth inhibition (TGI) (SW-620) was > 100 µM, the CC50 (SW-620; [2]) was > 100 µM and the GI50 (CAKI-1) was 1.59 µM. It also gave a Total growth inhibition (TGI) (CAKI-1) of 3.49 µM, a CC50 (CAKI-1; [2]) of 7.69 µM and a GI50 (786-0) of 2.07 µM. It also gave a Total growth inhibition (TGI) (786-0) of 4.49 µM, a CC50 (786-0; [2]) of 9.76 µM and a GI50 (MCF7) of 1.49 µM. For the same compound, the Total growth inhibition (TGI) (MCF7) was 4.81 µM, the CC50 (MCF7; [2]) was 72 µM and the GI50 (SK-MEL-5) was 1.6 µM. The Total growth inhibition (TGI) (SK-MEL-5) was 2.96 µM, the CC50 (SK-MEL-5; [2]) was 5.44 µM and the GI50 (SF-268) was 2.11 µM. For the same compound, the Total growth inhibition (TGI) (SF-268) was 4.68 µM, the CC50 (SF-268; [2]) was 11.5 µM and the GI50 (HT29) was 2.16 µM. The Total growth inhibition (TGI) (HT29) was 6.51 µM, the CC50 (HT29; [2]) was > 100 µM and the GI50 (HS 578T; Breast) was 1.52 µM. For the same compound, the Total growth inhibition (TGI) (HS 578T; Breast) was 3.01 µM, the CC50 (HS 578T; read-out: 50% lethal concentration (LC50), Breast) was 5.94 µM and the GI50 (DU-145) was 1.77 µM. It also gave a Total growth inhibition (TGI) (DU-145) of 3.59 µM, a CC50 (DU-145; [2]) of 7.28 µM and a GI50 (LOX IMVI; Melanoma) of 1.55 µM. The Total growth inhibition (TGI) (LOX IMVI; Melanoma) was 2.9 µM, the CC50 (LOX IMVI; read-out: 50% lethal concentration (LC50), Melanoma) was 5.41 µM and the GI50 (NCI/ADR-RES) was 1.83 µM. The Total growth inhibition (TGI) (NCI/ADR-RES) was 4.19 µM, the GI50 (KM12) was 1.68 µM and the Total growth inhibition (TGI) (KM12) was 3.68 µM. It also gave a GI50 (COLO 205) of 1.7 µM, a Total growth inhibition (TGI) (COLO 205) of 3.51 µM and a GI50 (SK-MEL-28) of 1.73 µM. The Total growth inhibition (TGI) (SK-MEL-28) was 3.3 µM, the CC50 (SK-MEL-28; [2]) was 6.3 µM and the GI50 (SNB-19) was 1.47 µM. For the same compound, the GI50 (IGROV1) was 1.67 µM, the Total growth inhibition (TGI) (IGROV1) was 5.16 µM and the CC50 (IGROV1; [2]) was > 100 µM. For the same compound, the Total growth inhibition (TGI) (NCI-H460; NCI-H460, Non-Small Cell Lung) was 3.34 µM, the GI50 (NCI-H460; NCI-H460, Non-Small-Cell Lung) was 1.59 µM and the CC50 (NCI-H460; read-out: 50% lethal concentration (LC50), NCI-H460, Non-Small Cell Lung) was 7 µM. It also gave a GI50 (SN12C; Renal) of 1.51 µM, a Total growth inhibition (TGI) (SN12C; Renal) of 3.37 µM and a CC50 (SN12C; [1]) of 7.48 µM. For the same compound, the GI50 (MALME-3M) was 1.6 µM, the Total growth inhibition (TGI) (MALME-3M) was 3.11 µM and the GI50 (K-562) was 2.07 µM. The CC50 (K-562; [2]) was > 100 µM, the GI50 (UO-31) was 2.07 µM and the Total growth inhibition (TGI) (UO-31) was 2.52 µM. It also gave a CC50 (UO-31; [2]) of 5.34 µM, a GI50 (MDA-MB-231; MDA-MB-231, Breast) of 1.59 µM and a Total growth inhibition (TGI) (MDA-MB-231; MDA-MB-231/ATCC, Breast) of 3.14 µM. For the same compound, the CC50 (MDA-MB-231; read-out: 50% lethal concentration (LC50), MDA-MB-231/ATCC, Breast) was 6.19 µM, the Total growth inhibition (TGI) (A549/ATCC; Non-Small Cell Lung) was 51.6 µM and the GI50 (A549/ATCC; Non-Small-Cell Lung) was 3.1 µM. The CC50 (A549/ATCC; read-out: 50% lethal concentration (LC50), Non-Small Cell Lung) was > 100 µM, the GI50 (BT-549) was 1.47 µM and the Total growth inhibition (TGI) (BT-549) was 3.5 µM. For the same compound, the GI50 (MDA-MB-468) was 1.93 µM, the Total growth inhibition (TGI) (MDA-MB-468) was 3.47 µM and the CC50 (MDA-MB-468; [2]) was 6.23 µM.
